Data: PubChem BioAssay AID248 (DTP/NCI, 2004)
Several values for one entry are separate records, joined by “and”; a condition that tells them apart may be missing. Identical values can stand only once. Toxic doses and inconclusive results are not listed. No stated cut-off is given here; in the data, active means T/C of 150% or more; inactive means T/C below 125%.

Test system: L1210 leukemia ip in BDF1 mice, survival T/C
Assay: NCI In Vivo Anticancer Drug Screen. Data for tumor model L1210 Leukemia (intraperitoneal) in B6D2F1 (BDF1) mice
Details: endpoint: mean survival time, higher = longer survival
Outline: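 Ratio derived from survival: compound-dosed mice over vehicle-dosed mice, all bearing a transplantable tumor.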

[1] = dose: 100.0 mg/kg/injection, schedule: Q01DX009 (ip), vehicle: saline with Tween-80
[2] = dose: 100.0 mg/kg/injection, schedule: Q04DX003 (ip), vehicle: Klucel (hydroxypropylcellulose) (HPC)
[3] = dose: 100.0 mg/kg/injection, schedule: Q04DX003 (ip), vehicle: saline with Tween-80
[4] = dose: 200.0 mg/kg/injection, schedule: Q01DX009 (ip), vehicle: saline with Tween-80
[5] = dose: 200.0 mg/kg/injection, schedule: Q04DX003 (ip), vehicle: Klucel (hydroxypropylcellulose) (HPC)
[6] = dose: 200.0 mg/kg/injection, schedule: Q04DX003 (ip), vehicle: saline with Tween-80
[7] = dose: 400.0 mg/kg/injection, schedule: Q01DX009 (ip), vehicle: saline with Tween-80
[8] = dose: 400.0 mg/kg/injection, schedule: Q04DX003 (ip), vehicle: Klucel (hydroxypropylcellulose) (HPC)
[9] = dose: 400.0 mg/kg/injection, schedule: Q04DX003 (ip), vehicle: saline with Tween-80
[10] = dose: 12.5 mg/kg/injection, schedule: Q01DX009 (ip), vehicle: Klucel (hydroxypropylcellulose) (HPC)
[11] = dose: 25.0 mg/kg/injection, schedule: Q01DX009 (ip), vehicle: Klucel (hydroxypropylcellulose) (HPC)
[12] = dose: 50.0 mg/kg/injection, schedule: Q01DX009 (ip), vehicle: Klucel (hydroxypropylcellulose) (HPC)
[13] = dose: 100.0 mg/kg/injection, schedule: Q04DX002 (ip), vehicle: Klucel (hydroxypropylcellulose) (HPC)
[14] = dose: 200.0 mg/kg/injection, schedule: Q04DX002 (ip), vehicle: Klucel (hydroxypropylcellulose) (HPC)
[15] = dose: 400.0 mg/kg/injection, schedule: Q04DX002 (ip), vehicle: Klucel (hydroxypropylcellulose) (HPC)
[16] = dose: 100.0 mg/kg/injection, schedule: Q01DX001 (ip), vehicle: Klucel (hydroxypropylcellulose) (HPC)
[17] = dose: 200.0 mg/kg/injection, schedule: Q01DX001 (ip), vehicle: Klucel (hydroxypropylcellulose) (HPC)
[18] = dose: 400.0 mg/kg/injection, schedule: Q01DX001 (ip), vehicle: Klucel (hydroxypropylcellulose) (HPC)

Measured: T/C

O=C(/C=C/c1ccccc1O)c1ccccc1
inactive: dose: 100.0 mg/kg/injection, schedule: Q01DX009 (ip), vehicle: Klucel (hydroxypropylcellulose) (HPC) 98 % of control | [1] 110 % of control | [2] 113 % of control | [3] 94 % of control | dose: 200.0 mg/kg/injection, schedule: Q01DX009 (ip), vehicle: Klucel (hydroxypropylcellulose) (HPC) 100 % of control | [4] 101 % of control | [5] 113 % of control | [6] 102 % of control | dose: 400.0 mg/kg/injection, schedule: Q01DX009 (ip), vehicle: Klucel (hydroxypropylcellulose) (HPC) 90 % of control | [7] 102 % of control | [8] 103 % of control | [9] 96 % of control

CCCCCCCCCCOc1ccc(/C=N\N=C\c2ccc(OCCCCCCCCCC)cc2)cc1
inactive: [1] 88 % of control | [4] 97 % of control | [7] 95 % of control

COc1c2c(c(OC)c3ccccc13)C(=O)c1ccccc1C2=O
inactive: dose: 50.0 mg/kg/injection, schedule: Q01DX005 (ip), vehicle: saline 94 % of control | dose: 100.0 mg/kg/injection, schedule: Q01DX005 (ip), vehicle: saline 91 % of control | dose: 200.0 mg/kg/injection, schedule: Q01DX005 (ip), vehicle: saline 91 % of control

CC1C(O)CC2CC1C2(C)C (stereo unspecified)
inactive: dose: 50.0 mg/kg/injection, schedule: Q01DX001 (ip), vehicle: saline with Tween-80 94 % of control | dose: 100.0 mg/kg/injection, schedule: Q01DX001 (ip), vehicle: saline with Tween-80 93 % of control | dose: 200.0 mg/kg/injection, schedule: Q01DX001 (ip), vehicle: saline with Tween-80 102 % of control

O=C(O)COc1cc(Cl)cc(Cl)c1
inactive: dose: 50.0 mg/kg/injection, schedule: Q04DX002 (ip), vehicle: other 91 % of control | dose: 100.0 mg/kg/injection, schedule: Q04DX002 (ip), vehicle: other 94 % of control | dose: 200.0 mg/kg/injection, schedule: Q04DX002 (ip), vehicle: other 108 % of control

Nc1c(Cl)[nH]cnc1=S
inactive: dose: 224.0 mg/kg/injection, schedule: Q01DX Z (ip), vehicle: methylcellulose (MC) 98 % of control | dose: 334.0 mg/kg/injection, schedule: Q01DX Z (ip), vehicle: methylcellulose (MC) 94 % of control | dose: 500.0 mg/kg/injection, schedule: Q01DX Z (ip), vehicle: methylcellulose (MC) 94 % of control | dose: 750.0 mg/kg/injection, schedule: Q01DX Z (ip), vehicle: methylcellulose (MC) 94 % of control

CSc1ccc(NC(=O)NS(=O)(=O)c2ccc(C)cc2)cc1
inactive: [1] 88 % of control and 91 % of control | dose: 100.0 mg/kg/injection, schedule: Q04DX002 (ip), vehicle: saline with Tween-80 96 % of control | [3] 95 % of control | [4] 97 % of control and 91 % of control | dose: 200.0 mg/kg/injection, schedule: Q04DX002 (ip), vehicle: saline with Tween-80 89 % of control | [6] 89 % of control | [7] 87 % of control | dose: 400.0 mg/kg/injection, schedule: Q04DX002 (ip), vehicle: saline with Tween-80 100 % of control and 86 % of control | [9] 90 % of control

NC(=O)N1C(c2ccccc2)C1c1ccccc1 (stereo unspecified)
inactive: [10] 100 % of control | dose: 12.5 mg/kg/injection, schedule: Q04DX003 (ip), vehicle: Klucel (hydroxypropylcellulose) (HPC) 93 % of control | [11] 97 % of control | dose: 25.0 mg/kg/injection, schedule: Q04DX003 (ip), vehicle: Klucel (hydroxypropylcellulose) (HPC) 100 % of control | [12] 100 % of control | dose: 50.0 mg/kg/injection, schedule: Q04DX003 (ip), vehicle: Klucel (hydroxypropylcellulose) (HPC) 92 % of control

O=C1CN(CCN2CC(=O)N(Cc3ccccc3)C2=S)C(=S)N1Cc1ccccc1
inactive: [13] 88 % of control | [14] 88 % of control | [15] 92 % of control

NCCNC(=S)S
inactive: [16] 103 % of control | [1] 93 % of control | [3] 93 % of control | [17] 95 % of control | [4] 87 % of control | [6] 95 % of control | [18] 103 % of control | [7] 86 % of control | [9] 91 % of control

CN1C(=O)OC2(CCN(Cc3ccccc3)CC2)C1=O
inactive: [2] 102 % of control | [5] 90 % of control | [8] 98 % of control

Nc1nc(-c2cc(Br)ccc2N=NN2CCOCC2)nc2ccc(Br)cc12
inactive: [13] 105 % of control | [14] 96 % of control | [15] 89 % of control

O=C(NCCCl)C(=O)NCCCl
inactive: [13] 104 % of control | [14] 107 % of control | [15] 93 % of control

CCCCCCCCCCCc1nc(N)nc(NCCCC)n1
inactive: [10] 97 % of control | [11] 96 % of control | dose: 25.0 mg/kg/injection, schedule: Q04DX002 (ip), vehicle: Klucel (hydroxypropylcellulose) (HPC) 93 % of control | [12] 86 % of control | dose: 50.0 mg/kg/injection, schedule: Q04DX002 (ip), vehicle: Klucel (hydroxypropylcellulose) (HPC) 96 % of control | [14] 89 % of control | [15] 89 % of control

Cc1ccc(C)c(CNc2cc(=O)[nH]c(=O)[nH]2)c1
inactive: [16] 97 % of control | [17] 101 % of control | [18] 97 % of control

O=CNC1CCCCC1
inactive: dose: 20.0 mg/kg/injection, schedule: Q01DX009 (ip), vehicle: saline with Tween-80 93 % of control | dose: 40.0 mg/kg/injection, schedule: Q01DX001 (ip), vehicle: saline with Tween-80 100 % of control | dose: 40.0 mg/kg/injection, schedule: Q01DX009 (ip), vehicle: saline with Tween-80 93 % of control | dose: 80.0 mg/kg/injection, schedule: Q01DX001 (ip), vehicle: saline with Tween-80 100 % of control | dose: 80.0 mg/kg/injection, schedule: Q01DX009 (ip), vehicle: saline with Tween-80 91 % of control

CCCC/C=C/CCCC
inactive: dose: 75.0 mg/kg/injection, schedule: Q01DX009 (ip), vehicle: saline 100 % of control | dose: 300.0 mg/kg/injection, schedule: Q01DX009 (ip), vehicle: saline 86 % of control

Cc1c(C(C)(C)c2ccccc2)[nH]c2ccc(C(C)(C)c3ccccc3)cc12
inactive: dose: 100.0 mg/kg/injection, schedule: Q01DX001 (ip), vehicle: saline 88 % of control | dose: 200.0 mg/kg/injection, schedule: Q01DX001 (ip), vehicle: saline 86 % of control | dose: 400.0 mg/kg/injection, schedule: Q01DX001 (ip), vehicle: saline 96 % of control

CCCCCCCCCC(=O)N1CCCCCC1
inactive: [13] 98 % of control | [14] 95 % of control | [15] 88 % of control

Cc1nnc2ncnc(SCc3ccccc3)c2n1
inactive: dose: 12.5 mg/kg/injection, schedule: Q01DX001 (ip), vehicle: Klucel (hydroxypropylcellulose) (HPC) 100 % of control | dose: 25.0 mg/kg/injection, schedule: Q01DX001 (ip), vehicle: Klucel (hydroxypropylcellulose) (HPC) 95 % of control and 91 % of control | dose: 50.0 mg/kg/injection, schedule: Q01DX001 (ip), vehicle: Klucel (hydroxypropylcellulose) (HPC) 93 % of control | [16] 90 % of control

CCOC(=O)CNc1ccc(F)c(C(F)(F)F)c1
inactive: dose: 100.0 mg/kg/injection, schedule: Q04DX002 (ip), vehicle: saline 95 % of control and 107 % of control | dose: 200.0 mg/kg/injection, schedule: Q04DX002 (ip), vehicle: saline 103 % of control and 92 % of control | dose: 400.0 mg/kg/injection, schedule: Q04DX002 (ip), vehicle: saline 110 % of control | dose: 600.0 mg/kg/injection, schedule: Q04DX002 (ip), vehicle: saline 95 % of control

N=C(CNC1CC2CCC1C2)SS(=O)(=O)O (stereo unspecified)
inactive: dose: 3.13 mg/kg/injection, schedule: Q01DX009 (ip), vehicle: Klucel (hydroxypropylcellulose) (HPC) 97 % of control | dose: 3.13 mg/kg/injection, schedule: Q04DX002 (ip), vehicle: Klucel (hydroxypropylcellulose) (HPC) 98 % of control | dose: 6.25 mg/kg/injection, schedule: Q01DX009 (ip), vehicle: Klucel (hydroxypropylcellulose) (HPC) 94 % of control | dose: 6.25 mg/kg/injection, schedule: Q04DX002 (ip), vehicle: Klucel (hydroxypropylcellulose) (HPC) 95 % of control | [10] 105 % of control | dose: 12.5 mg/kg/injection, schedule: Q04DX002 (ip), vehicle: Klucel (hydroxypropylcellulose) (HPC) 98 % of control and 103 % of control
